# According to patent publication US9738634B2, “Heterocyclic amide compound and herbicide” (SYNGENTA PARTICIPATIONS AG, priority 2013, dated 2017):
# Legend:
# Format in all cases: in vivo
# Conditions in all cases: treatment dosage 320 g/ha
# redroot pigweed [1] = experiment: Test Example 3: weedkilling efficacy through soil treatment; L: redroot pigweed
# Summary of the method: (§1)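 Crop and weed responses were judged three weeks after a uniform surface spray of the water-diluted emulsion at the given g/ha rate. Seeds sat beneath about 1.5 cm of sterilized diluvial soil, and boxes stood in a greenhouse at 25 to 30° C.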
# redroot pigweed [2] = experiment: Test Example 4: weedkilling efficacy by foliar treatment; L: redroot pigweed
# Summary of the method: (§2)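 Seeds are spot-sown into sterilized diluvial soil and covered with about 1.5 cm of soil. After 14 days' greenhouse growth at 25 to 30° C, plants are sprayed on stems and leaves with diluted emulsion at the stated g/ha rate, then scored at 3 weeks.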
# bulrush [3] = experiment: Test Example 2: weedkilling efficacy, growth period weed treatment in the submerged state; B: bulrush
# Summary of the method: (§3)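 Weeds treated at the 1-2 leaf stage by application of diluted emulsion onto floodwater (4 cm depth, alluvial soil) at specified g/ha. Grown in greenhouse at 25 to 30° C; herbicidal effect rated three weeks after treatment.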
# soybean [4] = experiment: Test Example 3: soil treatment, effect on crop; d: soybean
# Summary of the method: as §1
# Italian ryegrass [5] = experiment: Test Example 3: weedkilling efficacy through soil treatment; I: Italian ryegrass
# Summary of the method: as §1
# rapeseed [6] = experiment: Test Example 4: foliar treatment, effect on crop; g: rapeseed
# Summary of the method: as §2
# Indian mallow [7] = experiment: Test Example 3: weedkilling efficacy through soil treatment; K: Indian mallow
# Summary of the method: as §1
# wild oat [8] = experiment: Test Example 3: weedkilling efficacy through soil treatment; G: wild oat
# Summary of the method: as §1
# barnyard grass [9] = experiment: Test Example 1: weedkilling efficacy, preemergent weed treatment in the submerged state; A: barnyard grass
# Summary of the method: (§4)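 Pots of alluvial soil were flooded to a 4 cm depth. Mixed weed seeds were sown and 2.5 leaf-stage rice seedlings transplanted. On sowing day, water-diluted emulsion was applied to the water surface (dose in g/ha). After 3 weeks at 25–30 °C, effects were rated.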
# Italian ryegrass [10] = experiment: Test Example 4: weedkilling efficacy by foliar treatment; I: Italian ryegrass
# Summary of the method: as §2
# oval-leafed pondweed [11] = experiment: Test Example 2: weedkilling efficacy, growth period weed treatment in the submerged state; C: oval-leafed pondweed
# Summary of the method: as §3
# fig-leafed goosefoot [12] = experiment: Test Example 4: weedkilling efficacy by foliar treatment; M: fig-leafed goosefoot
# Summary of the method: as §2
# common wind-grass [13] = experiment: Test Example 4: weedkilling efficacy by foliar treatment; J: common wind-grass
# Summary of the method: as §2
# soybean [14] = experiment: Test Example 4: foliar treatment, effect on crop; d: soybean
# Summary of the method: as §2
# crabgrass [15] = experiment: Test Example 3: weedkilling efficacy through soil treatment; D: crabgrass
# Summary of the method: as §1
# corn [16] = experiment: Test Example 4: foliar treatment, effect on crop; c: corn
# Summary of the method: as §2
# chickweed [17] = experiment: Test Example 4: weedkilling efficacy by foliar treatment; N: chickweed
# Summary of the method: as §2
# fig-leafed goosefoot [18] = experiment: Test Example 3: weedkilling efficacy through soil treatment; M: fig-leafed goosefoot
# Summary of the method: as §1
# birds-eye speedwell [19] = experiment: Test Example 4: weedkilling efficacy by foliar treatment; p: birds-eye speedwell
# Summary of the method: as §2
# catchweed [20] = experiment: Test Example 4: weedkilling efficacy by foliar treatment; O: catchweed
# Summary of the method: as §2
# birds-eye speedwell [21] = experiment: Test Example 3: weedkilling efficacy through soil treatment; p: birds-eye speedwell
# Summary of the method: as §1
# common wind-grass [22] = experiment: Test Example 3: weedkilling efficacy through soil treatment; J: common wind-grass
# Summary of the method: as §1
# barnyard grass [23] = experiment: Test Example 4: weedkilling efficacy by foliar treatment; F: barnyard grass
# Summary of the method: as §2
# black-grass [24] = experiment: Test Example 4: weedkilling efficacy by foliar treatment; H: black-grass
# Summary of the method: as §2
# directly sown rice [25] = experiment: Test Example 4: foliar treatment, effect on crop; b: directly sown rice
# Summary of the method: as §2
# Indian mallow [26] = experiment: Test Example 4: weedkilling efficacy by foliar treatment; K: Indian mallow
# Summary of the method: as §2
# beet [27] = experiment: Test Example 3: soil treatment, effect on crop; f: beet
# Summary of the method: as §1
# barnyard grass [28] = experiment: Test Example 3: weedkilling efficacy through soil treatment; F: barnyard grass
# Summary of the method: as §1
# rapeseed [29] = experiment: Test Example 3: soil treatment, effect on crop; g: rapeseed
# Summary of the method: as §1
# catchweed [30] = experiment: Test Example 3: weedkilling efficacy through soil treatment; O: catchweed
# Summary of the method: as §1
# barnyard grass [31] = experiment: Test Example 2: weedkilling efficacy, growth period weed treatment in the submerged state; A: barnyard grass
# Summary of the method: as §3
# chickweed [32] = experiment: Test Example 3: weedkilling efficacy through soil treatment; N: chickweed
# Summary of the method: as §1
# green foxtail [33] = experiment: Test Example 4: weedkilling efficacy by foliar treatment; E: green foxtail
# Summary of the method: as §2
# crabgrass [34] = experiment: Test Example 4: weedkilling efficacy by foliar treatment; D: crabgrass
# Summary of the method: as §2
# wheat [35] = experiment: Test Example 3: soil treatment, effect on crop; e: wheat
# Summary of the method: as §1
# wild oat [36] = experiment: Test Example 4: weedkilling efficacy by foliar treatment; G: wild oat
# Summary of the method: as §2
# oval-leafed pondweed [37] = experiment: Test Example 1: weedkilling efficacy, preemergent weed treatment in the submerged state; C: oval-leafed pondweed
# Summary of the method: as §4
# green foxtail [38] = experiment: Test Example 3: weedkilling efficacy through soil treatment; E: green foxtail
# Summary of the method: as §1
# black-grass [39] = experiment: Test Example 3: weedkilling efficacy through soil treatment; H: black-grass
# Summary of the method: as §1
# wheat [40] = experiment: Test Example 4: foliar treatment, effect on crop; e: wheat
# Summary of the method: as §2
# beet [41] = experiment: Test Example 4: foliar treatment, effect on crop; f: beet
# Summary of the method: as §2
# directly sown rice [42] = experiment: Test Example 3: soil treatment, effect on crop; b: directly sown rice
# Summary of the method: as §1
# bulrush [43] = experiment: Test Example 1: weedkilling efficacy, preemergent weed treatment in the submerged state; B: bulrush
# Summary of the method: as §4
# corn [44] = experiment: Test Example 3: soil treatment, effect on crop; c: corn
# Summary of the method: as §1
# transplanted rice = experiment: Test Example 1: preemergent weed treatment in the submerged state, effect on crop; a: transplanted rice
# Summary of the method: as §4
smiles,measurement,setting,value
CC1=C(c2ccccc2)C(=O)N(C(C)(C)C(=O)Nc2cc(C(F)F)cc(Cl)n2)CO1 [B-2-44],L (redroot pigweed) weedkilling efficacy grade,redroot pigweed [1],0 (weed kill ratio 5% or less (practically no effect))
same,L (redroot pigweed) weedkilling efficacy grade,redroot pigweed [2],"3 (weed kill ratio 40% or more, less than 70%)"
same,B (bulrush) weedkilling efficacy grade,bulrush [3],"5 (weed kill ratio 90% or more, (practically complete withering))"
same,d (soybean) effect on crop grade,soybean [4],0 (weed kill ratio 5% or less (practically no effect))
same,I (Italian ryegrass) weedkilling efficacy grade,Italian ryegrass [5],"5 (weed kill ratio 90% or more, (practically complete withering))"
same,g (rapeseed) effect on crop grade,rapeseed [6],"5 (weed kill ratio 90% or more, (practically complete withering))"
same,K (Indian mallow) weedkilling efficacy grade,Indian mallow [7],0 (weed kill ratio 5% or less (practically no effect))
same,G (wild oat) weedkilling efficacy grade,wild oat [8],"2 (weed kill ratio 20% or more, less than 40%)"
same,A (barnyard grass) weedkilling efficacy grade,barnyard grass [9],"5 (weed kill ratio 90% or more, (practically complete withering))"
same,I (Italian ryegrass) weedkilling efficacy grade,Italian ryegrass [10],"5 (weed kill ratio 90% or more, (practically complete withering))"
same,C (oval-leafed pondweed) weedkilling efficacy grade,oval-leafed pondweed [11],"5 (weed kill ratio 90% or more, (practically complete withering))"
same,M (fig-leafed goosefoot) weedkilling efficacy grade,fig-leafed goosefoot [12],"3 (weed kill ratio 40% or more, less than 70%)"
same,J (common wind-grass) weedkilling efficacy grade,common wind-grass [13],"5 (weed kill ratio 90% or more, (practically complete withering))"
same,d (soybean) effect on crop grade,soybean [14],"4 (weed kill ratio 70% or more, less than 90%)"
same,D (crabgrass) weedkilling efficacy grade,crabgrass [15],"5 (weed kill ratio 90% or more, (practically complete withering))"
same,c (corn) effect on crop grade,corn [16],"1 (weed kill ratio 5% or more, less than 20%)"
same,N (chickweed) weedkilling efficacy grade,chickweed [17],"4 (weed kill ratio 70% or more, less than 90%)"
same,M (fig-leafed goosefoot) weedkilling efficacy grade,fig-leafed goosefoot [18],"3 (weed kill ratio 40% or more, less than 70%)"
same,P (birds-eye speedwell) weedkilling efficacy grade,birds-eye speedwell [19],"5 (weed kill ratio 90% or more, (practically complete withering))"
same,O (catchweed) weedkilling efficacy grade,catchweed [20],"5 (weed kill ratio 90% or more, (practically complete withering))"
same,P (birds-eye speedwell) weedkilling efficacy grade,birds-eye speedwell [21],"4 (weed kill ratio 70% or more, less than 90%)"
same,J (common wind-grass) weedkilling efficacy grade,common wind-grass [22],"5 (weed kill ratio 90% or more, (practically complete withering))"
same,F (barnyard grass) weedkilling efficacy grade,barnyard grass [23],"4 (weed kill ratio 70% or more, less than 90%)"
same,H (black-grass) weedkilling efficacy grade,black-grass [24],"5 (weed kill ratio 90% or more, (practically complete withering))"
same,b (directly sown rice) effect on crop grade,directly sown rice [25],"3 (weed kill ratio 40% or more, less than 70%)"
same,K (Indian mallow) weedkilling efficacy grade,Indian mallow [26],"4 (weed kill ratio 70% or more, less than 90%)"
same,f (beet) effect on crop grade,beet [27],"3 (weed kill ratio 40% or more, less than 70%)"
same,F (barnyard grass) weedkilling efficacy grade,barnyard grass [28],"5 (weed kill ratio 90% or more, (practically complete withering))"
same,g (rapeseed) effect on crop grade,rapeseed [29],"4 (weed kill ratio 70% or more, less than 90%)"
same,O (catchweed) weedkilling efficacy grade,catchweed [30],0 (weed kill ratio 5% or less (practically no effect))
same,A (barnyard grass) weedkilling efficacy grade,barnyard grass [31],"5 (weed kill ratio 90% or more, (practically complete withering))"
same,N (chickweed) weedkilling efficacy grade,chickweed [32],"3 (weed kill ratio 40% or more, less than 70%)"
same,E (green foxtail) weedkilling efficacy grade,green foxtail [33],"5 (weed kill ratio 90% or more, (practically complete withering))"
same,D (crabgrass) weedkilling efficacy grade,crabgrass [34],"4 (weed kill ratio 70% or more, less than 90%)"
same,e (wheat) effect on crop grade,wheat [35],"1 (weed kill ratio 5% or more, less than 20%)"
same,G (wild oat) weedkilling efficacy grade,wild oat [36],"3 (weed kill ratio 40% or more, less than 70%)"
same,C (oval-leafed pondweed) weedkilling efficacy grade,oval-leafed pondweed [37],"5 (weed kill ratio 90% or more, (practically complete withering))"
same,E (green foxtail) weedkilling efficacy grade,green foxtail [38],"5 (weed kill ratio 90% or more, (practically complete withering))"
same,H (black-grass) weedkilling efficacy grade,black-grass [39],"5 (weed kill ratio 90% or more, (practically complete withering))"
same,e (wheat) effect on crop grade,wheat [40],"4 (weed kill ratio 70% or more, less than 90%)"
same,f (beet) effect on crop grade,beet [41],"3 (weed kill ratio 40% or more, less than 70%)"
same,b (directly sown rice) effect on crop grade,directly sown rice [42],"3 (weed kill ratio 40% or more, less than 70%)"
same,B (bulrush) weedkilling efficacy grade,bulrush [43],"5 (weed kill ratio 90% or more, (practically complete withering))"
same,c (corn) effect on crop grade,corn [44],0 (weed kill ratio 5% or less (practically no effect))
same,a (transplanted rice) effect on crop grade,transplanted rice,"5 (weed kill ratio 90% or more, (practically complete withering))"
